ChEMBL document CHEMBL3734705, “Synthesis and in vitro cytotoxicity of novel C-12 substituted-14-deoxy-andrographolide derivatives as potent anti-cancer agents” (2015)

Legend:
[1] = Cytotoxicity against human HCT15 cells assessed as growth inhibition at 10 uM after 48 hrs by SRB assay; type: functional; details: HCT-15, 48 h, read-out: GI
NCI-H23 = experiment: Cytotoxicity against human NCI-H23 cells assessed as growth level at 10 uM after 48 hrs by SRB assay; type: functional
786-0 = experiment: Cytotoxicity against human 786-0 cells assessed as growth level at 10 uM after 48 hrs by SRB assay; type: functional
[2] = Cytotoxicity against human SNB75 cells assessed as growth level at 10 uM after 48 hrs by SRB assay; type: functional, SNB-75
ACHN = experiment: Cytotoxicity against human ACHN cells assessed as growth inhibition at 10 uM after 48 hrs by SRB assay; type: functional; details: read-out: GI
A498 [3] = experiment: Cytotoxicity against human A498 cells assessed as growth inhibition at 10 uM after 48 hrs by SRB assay; type: functional; details: A498, 48 h, read-out: GI
SN12C = experiment: Cytotoxicity against human SN12C cells assessed as growth level at 10 uM after 48 hrs by SRB assay; type: functional
MDA-MB-468 [4] = experiment: Cytotoxicity against human MDA-MB-468 cells assessed as growth level at 10 uM after 48 hrs by SRB assay; type: functional
[5] = Cytotoxicity against human HCT116 cells assessed as growth level at 10 uM after 48 hrs by SRB assay; type: functional, HCT-116
U-251 [6] = experiment: Cytotoxicity against human U251 cells assessed as growth inhibition at 10 uM after 48 hrs by SRB assay; type: functional; details: U-251, 48 h, read-out: GI
Malme-3M [7] = experiment: Cytotoxicity against human MALME-3M cells assessed as growth level at 10 uM after 48 hrs by SRB assay; type: functional
[8] = Cytotoxicity against human LOXIMVI cells assessed as growth level at 10 uM after 48 hrs by SRB assay; type: functional, LOX IMVI
[9] = Cytotoxicity against human PC3 cells assessed as growth inhibition at 10 uM after 48 hrs by SRB assay; type: functional; details: PC-3, 48 h, read-out: GI
CCRF-CEM [10] = experiment: Cytotoxicity against human CCRF-CEM cells assessed as growth level at 10 uM after 48 hrs by SRB assay; type: functional
CCRF-CEM [11] = experiment: Cytotoxicity against human CCRF-CEM cells assessed as growth inhibition at 10 uM after 48 hrs by SRB assay; type: functional; details: read-out: GI
[12] = Cytotoxicity against human HCC2998 cells assessed as growth inhibition at 10 uM after 48 hrs by SRB assay; type: functional; details: HCC 2998, 48 h, read-out: GI
[13] = Cytotoxicity against human COLO205 cells assessed as growth inhibition at 10 uM after 48 hrs by SRB assay; type: functional; details: COLO 205, 48 h, read-out: GI
[14] = Cytotoxicity against human UACC62 cells assessed as growth level at 10 uM after 48 hrs by SRB assay; type: functional, UACC-62
[15] = Cytotoxicity against human SF295 cells assessed as growth level at 10 uM after 48 hrs by SRB assay; type: functional, SF-295
[16] = Cytotoxicity against human DU145 cells assessed as growth level at 10 uM after 48 hrs by SRB assay; type: functional, DU-145
[17] = Cytotoxicity against human SW620 cells assessed as growth level at 10 uM after 48 hrs by SRB assay; type: functional, SW-620
[18] = Cytotoxicity against human SF295 cells assessed as growth inhibition at 10 uM after 48 hrs by SRB assay; type: functional; details: SF-295, 48 h, read-out: GI
[19] = Cytotoxicity against human OVCAR8 cells assessed as growth inhibition at 10 uM after 48 hrs by SRB assay; type: functional; details: OVCAR-8, 48 h, read-out: GI
[20] = Cytotoxicity against human BT549 cells assessed as growth level at 10 uM after 48 hrs by SRB assay; type: functional, BT-549
[21] = Cytotoxicity against human MOLT4 cells assessed as growth inhibition at 10 uM after 48 hrs by SRB assay; type: functional; details: MOLT-4, 48 h, read-out: GI
[22] = Cytotoxicity against human NCI-ADR-RES cells assessed as growth level at 10 uM after 48 hrs by SRB assay; type: functional
[23] = Cytotoxicity against human HL-60(TB) cells assessed as growth level at 10 uM after 48 hrs by SRB assay; type: functional
Malme-3M [24] = experiment: Cytotoxicity against human MALME-3M cells assessed as growth inhibition at 10 uM after 48 hrs by SRB assay; type: functional; details: read-out: GI
M14 = experiment: Cytotoxicity against human M14 cells assessed as growth level at 10 uM after 48 hrs by SRB assay; type: functional
NCI-H226 = experiment: Cytotoxicity against human NCI-H226 cells assessed as growth level at 10 uM after 48 hrs by SRB assay; type: functional
[25] = Cytotoxicity against human OVCAR4 cells assessed as growth level at 10 uM after 48 hrs by SRB assay; type: functional, OVCAR-4
NCI-H322M = experiment: Cytotoxicity against human NCI-H322M cells assessed as growth inhibition at 10 uM after 48 hrs by SRB assay; type: functional; details: read-out: GI
SK-MEL-28 [26] = experiment: Cytotoxicity against human SK-MEL-28 cells assessed as growth inhibition at 10 uM after 48 hrs by SRB assay; type: functional; details: SK-MEL-28, 48 h, read-out: GI
[27] = Cytotoxicity against human RPMI8226 cells assessed as growth inhibition at 10 uM after 48 hrs by SRB assay; type: functional; details: RPMI-8226, 48 h, read-out: GI
[28] = Cytotoxicity against human UACC257 cells assessed as growth inhibition at 10 uM after 48 hrs by SRB assay; type: functional; details: UACC-257, 48 h, read-out: GI
A498 [29] = experiment: Cytotoxicity against human A498 cells assessed as growth level at 10 uM after 48 hrs by SRB assay; type: functional
MDA-MB-468 [30] = experiment: Cytotoxicity against human MDA-MB-468 cells assessed as growth inhibition at 10 uM after 48 hrs by SRB assay; type: functional; details: MDA-MB-468, 48 h, read-out: GI
K562 = experiment: Cytotoxicity against human K562 cells assessed as growth inhibition at 10 uM after 48 hrs by SRB assay; type: functional; details: K562, 48 h, read-out: GI
SK-MEL-28 [31] = experiment: Cytotoxicity against human SK-MEL-28 cells assessed as growth level at 10 uM after 48 hrs by SRB assay; type: functional
[32] = Cytotoxicity against human RXF393 cells assessed as growth inhibition at 10 uM after 48 hrs by SRB assay; type: functional; details: RXF 393, 48 h, read-out: GI
MDA-MB-435 = experiment: Cytotoxicity against human MDA-MB-435 cells assessed as growth inhibition at 10 uM after 48 hrs by SRB assay; type: functional; details: MDA-MB-435, 48 h, read-out: GI
U-251 [33] = experiment: Cytotoxicity against human U251 cells assessed as growth level at 10 uM after 48 hrs by SRB assay; type: functional
[34] = Cytotoxicity against human SW620 cells assessed as growth inhibition at 10 uM after 48 hrs by SRB assay; type: functional; details: SW-620, 48 h, read-out: GI
[35] = Cytotoxicity against human SNB19 cells assessed as growth inhibition at 10 uM after 48 hrs by SRB assay; type: functional; details: SNB-19, 48 h, read-out: GI

SMILES: C=C1CC[C@@H]2[C@](C)(COC(C)=O)[C@H](OC(C)=O)CC[C@@]2(C)[C@@H]1CC(NCc1ccc(F)cc1)C1=CCOC1=O (mixture of isomers)
- inhibition of growth at 10 µM [1]: 63%
- Activity (NCI-H23): 57.85%
- Activity (786-0): 86.82%
- Activity [2]: 58.06%
- inhibition of growth at 10 µM (ACHN): 49.1%
- inhibition of growth at 10 µM (A498 [3]): 48.3%
- Activity (SN12C): 46.23%
- Activity (MDA-MB-468 [4]): 27.52%
- Activity [5]: 33.73%
- inhibition of growth at 10 µM (U-251 [6]): 52%
- Activity (Malme-3M [7]): 65.1%
- Activity [8]: 9.33%
- inhibition of growth at 10 µM [9]: 79.2%
- Activity (CCRF-CEM [10]): 9.18%
- inhibition of growth at 10 µM (CCRF-CEM [11]): 90.8%
- inhibition of growth at 10 µM [12]: 10.7%
- inhibition of growth at 10 µM [13]: 57.9%
- Activity [14]: 32.2%
- Activity [15]: 96.13%
- Activity [16]: 69.82%
- Activity [17]: 32.04%
- inhibition of growth at 10 µM [18]: 3.87%
- inhibition of growth at 10 µM [19]: 81.4%
- Activity [20]: 28.73%
- inhibition of growth at 10 µM [21]: 0.37%
- Activity [22]: 28.29%
- Activity [23]: -9.52%
- inhibition of growth at 10 µM (Malme-3M [24]): 34.9%
- Activity (M14): 37.3%
- Activity (NCI-H226): 40.13%
- Activity [25]: 30.87%
- inhibition of growth at 10 µM (NCI-H322M): 27.5%
- inhibition of growth at 10 µM (SK-MEL-28 [26]): 22.2%
- inhibition of growth at 10 µM [27]: 98.7%
- inhibition of growth at 10 µM [28]: 54.2%
- Activity (A498 [29]): 51.71%
- inhibition of growth at 10 µM (MDA-MB-468 [30]): 72.5%
- inhibition of growth at 10 µM (K562): 81.2%
- Activity (SK-MEL-28 [31]): 77.79%
- inhibition of growth at 10 µM [32]: 19.4%
- inhibition of growth at 10 µM (MDA-MB-435): 67.3%
- Activity (U-251 [33]): 48.01%
- inhibition of growth at 10 µM [34]: 68%

SMILES: C=C1CC[C@@H]2[C@](C)(COC(C)=O)[C@H](OC(C)=O)CC[C@@]2(C)[C@@H]1CC(NCCCC)C1=CCOC1=O (mixture of isomers)
- inhibition of growth at 10 µM [1]: 3.11%
- Activity (NCI-H23): 89.71%
- Activity (786-0): 96.07%
- Activity [2]: 77.87%
- inhibition of growth at 10 µM (ACHN): 0.58%
- inhibition of growth at 10 µM [35]: 12.7%
- inhibition of growth at 10 µM (A498 [3]): 24.6%
- Activity (SN12C): 89.83%
- Activity (MDA-MB-468 [4]): 66.18%
- Activity [5]: 80.22%
- inhibition of growth at 10 µM (U-251 [6]): 13.2%
- Activity (Malme-3M [7]): 97.57%
- Activity [8]: 90.39%
- inhibition of growth at 10 µM [9]: 48.8%
- Activity (CCRF-CEM [10]): 80.69%
- inhibition of growth at 10 µM (CCRF-CEM [11]): 19.3%
- inhibition of growth at 10 µM [12]: 7.9%
- inhibition of growth at 10 µM [13]: 17.9%
- Activity [14]: 72.38%
- Activity [15]: 94.28%
- Activity [16]: 99.18%
- Activity [17]: 95.01%
- inhibition of growth at 10 µM [18]: 5.72%
- inhibition of growth at 10 µM [19]: 10.4%
- Activity [20]: 89.2%
- inhibition of growth at 10 µM [21]: 44.5%
- Activity [22]: 87.27%
- Activity [23]: 93.82%
- inhibition of growth at 10 µM (Malme-3M [24]): 2.43%
- Activity (M14): 92.75%
- Activity (NCI-H226): 75.67%
- Activity [25]: 85.7%
- inhibition of growth at 10 µM (NCI-H322M): 3.78%
- inhibition of growth at 10 µM (SK-MEL-28 [26]): 1.91%
- inhibition of growth at 10 µM [27]: 39.5%
- inhibition of growth at 10 µM [28]: 14.8%
- Activity (A498 [29]): 75.44%
- inhibition of growth at 10 µM (MDA-MB-468 [30]): 33.8%
- inhibition of growth at 10 µM (K562): 30.5%
- Activity (SK-MEL-28 [31]): 98.09%
- inhibition of growth at 10 µM (MDA-MB-435): 11.4%
- Activity (U-251 [33]): 86.76%
- inhibition of growth at 10 µM [34]: 4.99%
